From patent publication US20090018134A1, “Compounds - 945” (AstraZeneca AB, priority 2007, published 2009) come the findings set out here.

T1 sequence (P42345 1362-2549): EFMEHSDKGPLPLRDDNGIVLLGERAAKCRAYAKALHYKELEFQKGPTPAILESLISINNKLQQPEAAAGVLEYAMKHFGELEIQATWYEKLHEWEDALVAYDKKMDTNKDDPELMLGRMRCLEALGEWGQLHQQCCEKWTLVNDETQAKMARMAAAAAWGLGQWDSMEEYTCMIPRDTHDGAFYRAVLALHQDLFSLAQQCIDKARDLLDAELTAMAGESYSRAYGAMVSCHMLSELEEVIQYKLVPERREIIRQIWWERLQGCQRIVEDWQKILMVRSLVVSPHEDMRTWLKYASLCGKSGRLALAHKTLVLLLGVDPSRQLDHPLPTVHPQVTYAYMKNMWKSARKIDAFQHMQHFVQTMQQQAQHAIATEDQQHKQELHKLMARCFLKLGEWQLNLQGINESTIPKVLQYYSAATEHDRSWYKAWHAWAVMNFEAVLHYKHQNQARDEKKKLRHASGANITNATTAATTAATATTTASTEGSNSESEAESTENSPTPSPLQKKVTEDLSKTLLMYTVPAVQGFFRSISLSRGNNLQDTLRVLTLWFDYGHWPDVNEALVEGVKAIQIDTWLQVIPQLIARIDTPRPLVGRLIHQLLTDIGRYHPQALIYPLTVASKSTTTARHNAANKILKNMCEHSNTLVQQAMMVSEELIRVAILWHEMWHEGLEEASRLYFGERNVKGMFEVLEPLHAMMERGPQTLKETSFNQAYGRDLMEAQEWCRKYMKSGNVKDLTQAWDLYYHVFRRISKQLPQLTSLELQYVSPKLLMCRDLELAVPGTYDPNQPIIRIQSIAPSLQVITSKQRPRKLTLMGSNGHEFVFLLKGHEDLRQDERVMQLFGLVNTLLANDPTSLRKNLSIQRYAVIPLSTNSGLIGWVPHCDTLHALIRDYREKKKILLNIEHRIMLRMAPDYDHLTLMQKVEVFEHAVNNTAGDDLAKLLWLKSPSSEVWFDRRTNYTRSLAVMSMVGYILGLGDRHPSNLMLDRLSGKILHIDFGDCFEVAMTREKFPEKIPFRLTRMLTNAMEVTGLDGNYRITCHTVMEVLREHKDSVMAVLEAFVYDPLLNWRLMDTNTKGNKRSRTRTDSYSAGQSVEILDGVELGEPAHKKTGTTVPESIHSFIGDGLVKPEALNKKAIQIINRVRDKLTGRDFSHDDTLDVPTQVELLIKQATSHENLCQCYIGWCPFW

This assay addresses T1, mTOR (Homo sapiens, UniProt P42345).
T1 construct: FLAG; made in house
Kind of assay: In Vitro mTOR Kinase Assay (Echo), Test (a)(ii). It is filed as biochemical. As to conditions: table of enzyme assay Test (a)(ii); read-out: Test (a)(ii) IC50. An outline of the steps:
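FLAG-tagged human mTOR truncation (residues 1362-2549) expressed in HEK293 cells and FLAG-purified. Compounds dispensed acoustically, reaction 2 h at room temperature, stopped with EDTA. Phosphorylation of biotinylated peptide detected by AlphaScreen with anti-p70 S6K (T389) antibody overnight; IC50 reported.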
In the case of `CCNC(=O)Nc1ccc(-c2nc(N3[C@@H](C)COC[C@@H]3C)cc(C3(S(=O)(=O)C4CC4)CC3)n2)cc1` [Example 92d, 1-[4-[4-(1-cyclopropylsulfonylcyclopropyl)-6-[(3S,5S)-3,5-dimethylmorpholin-4-yl]pyrimidin-2-yl]phenyl]-3-ethylurea], the IC50 is 8.07 nM.

Regarding `C[C@H]1COC[C@H](C)N1c1cc(C2(S(=O)(=O)C3CC3)CC2)nc(-c2ccc(NC(=O)NCCF)cc2)n1` [Example 92e, 1-[4-[4-(1-cyclopropylsulfonylcyclopropyl)-6-[(3S,5S)-3,5-dimethylmorpholin-4-yl]pyrimidin-2-yl]phenyl]-3-(2-fluoroethyl)urea], the IC50 is 5.99 nM.

For `C[C@H]1COC[C@H](C)N1c1cc(C2(S(=O)(=O)C3CC3)CC2)nc(-c2ccc(NC(=O)NCCO)cc2)n1` [Example 92f, 1-[4-[4-(1-cyclopropylsulfonylcyclopropyl)-6-[(3S,5S)-3,5-dimethylmorpholin-4-yl]pyrimidin-2-yl]phenyl]-3-(2-hydroxyethyl)urea], the IC50 came out at 6.25 nM.

As to `C[C@H]1COC[C@H](C)N1c1cc(C2(S(=O)(=O)c3ccccc3)CC2)nc(-c2ccc(NC(=O)NC3CC3)cc2)n1` [Example 93, 1-[4-[4-[1-(Benzenesulfonyl)cyclopropyl]-6-[(3S,5S)-3,5-dimethylmorpholin-4-yl]pyrimidin-2-yl]phenyl]-3-cyclopropylurea], the IC50 came to 5.05 nM.

For the compound `CNC(=O)Nc1ccc(-c2nc(N3[C@@H](C)COC[C@@H]3C)cc(C3(S(=O)(=O)c4ccccc4)CC3)n2)cc1` [Example 93a, 1-[4-[4-[1-(benzenesulfonyl)cyclopropyl]-6-[(3S,5S)-3,5-dimethylmorpholin-4-yl]pyrimidin-2-yl]phenyl]-3-methylurea], the IC50 was found to be 3.03 nM.

Regarding `C[C@H]1COC[C@H](C)N1c1cc(C2(S(=O)(=O)c3ccccc3)CC2)nc(-c2ccc(NC(=O)NCCO)cc2)n1` [Example 93b, 1-[4-[4-[1-(benzenesulfonyl)cyclopropyl]-6-[(3S,5S)-3,5-dimethylmorpholin-4-yl]pyrimidin-2-yl]phenyl]-3-(2-hydroxyethyl)urea], the IC50 came to 2.3 nM.

Take `C[C@H]1COC[C@H](C)N1c1cc(C2(S(=O)(=O)c3ccccc3)CC2)nc(-c2ccc(NC(=O)NCCF)cc2)n1` [Example 93c, 1-[4-[4-[1-(benzenesulfonyl)cyclopropyl]-6-[(3S,5S)-3,5-dimethylmorpholin-4-yl]pyrimidin-2-yl]phenyl]-3-(2-fluoroethyl)urea]: the IC50 amounted to 2.9 nM.

On to `C[C@H]1COC[C@H](C)N1c1cc(C2(S(=O)(=O)c3ccccc3)CC2)nc(-c2ccc(NC(=O)NCC(F)F)cc2)n1` [Example 93d, 1-[4-[4-[1-(benzenesulfonyl)cyclopropyl]-6-[(3S,5S)-3,5-dimethylmorpholin-4-yl]pyrimidin-2-yl]phenyl]-3-(2,2-difluoroethyl)urea], for which the IC50 was 0.818 nM.

Regarding `C[C@H]1COC[C@H](C)N1c1cc(C2(S(=O)(=O)c3ccccc3)CC2)nc(-c2ccc(NC(=O)Nc3cnn(C)c3)cc2)n1` [Example 93e, 1-[4-[4-[1-(benzenesulfonyl)cyclopropyl]-6-[(3S,5S)-3,5-dimethylmorpholin-4-yl]pyrimidin-2-yl]phenyl]-3-(1-methylpyrazol-4-yl)urea], the IC50 came out at 5.41 nM.

In the case of `CNC(=O)Nc1ccc(-c2nc(N3CCOC[C@@H]3C)cc(C3(S(=O)(=O)C4CCOCC4)CC3)n2)cc1` [Example 94a, 3-methyl-1-[4-[4-[(3S)-3-methylmorpholin-4-yl]-6-[1-(oxan-4-ylsulfonyl)cyclopropyl]pyrimidin-2-yl]phenyl]urea], the IC50 was 13.6 nM.

Consider `CCNC(=O)Nc1ccc(-c2nc(N3CCOC[C@@H]3C)cc(C3(S(=O)(=O)C4CCOCC4)CC3)n2)cc1` [Example 94b, 1-ethyl-3-[4-[4-[(3S)-3-methylmorpholin-4-yl]-6-[1-(oxan-4-ylsulfonyl)cyclopropyl]pyrimidin-2-yl]phenyl]urea], for which the IC50 was 12.2 nM.

Regarding `C[C@H]1COCCN1c1cc(C2(S(=O)(=O)C3CCOCC3)CC2)nc(-c2ccc(NC(=O)NC3CC3)cc2)n1` [Example 94c, 3-cyclopropyl-1-[4-[4-[(3S)-3-methylmorpholin-4-yl]-6-[1-(oxan-4-ylsulfonyl)cyclopropyl]pyrimidin-2-yl]phenyl]urea], the IC50 was 11.8 nM.

For the compound `C[C@H]1COCCN1c1cc(C2(S(=O)(=O)C3CCOCC3)CC2)nc(-c2ccc(NC(=O)NCCO)cc2)n1` [Example 94d, 3-(2-hydroxyethyl)-1-[4-[4-[(3S)-3-methylmorpholin-4-yl]-6-[1-(oxan-4-ylsulfonyl)cyclopropyl]pyrimidin-2-yl]phenyl]urea], the IC50 was 11 nM.

Turning to `C[C@H]1COCCN1c1cc(C2(S(=O)(=O)C3CCOCC3)CC2)nc(-c2ccc(NC(=O)Nc3cnn(C)c3)cc2)n1` [Example 94e, 1-[4-[4-[(3S)-3-methylmorpholin-4-yl]-6-[1-(oxan-4-ylsulfonyl)cyclopropyl]pyrimidin-2-yl]phenyl]-3-(1-methylpyrazol-4-yl)urea], the IC50 amounted to 13.5 nM.

For `C[C@H]1COCCN1c1cc(C2(S(=O)(=O)C3CCOCC3)CC2)nc(-c2ccc(NC(=O)NC3CCC3)cc2)n1` [Example 94f, 3-cyclobutyl-1-[4-[4-[(3S)-3-methylmorpholin-4-yl]-6-[1-(oxan-4-ylsulfonyl)cyclopropyl]pyrimidin-2-yl]phenyl]urea], the IC50 was 15.1 nM.

`CNC(=O)Nc1ccc(-c2nc(N3CCOC[C@@H]3C)cc(C3(S(=O)(=O)C4CCOC4)CC3)n2)cc1` (stereo partly drawn) [Example 94g, 3-methyl-1-[4-[4-[(3S)-3-methylmorpholin-4-yl]-6-[1-(oxolan-3-ylsulfonyl)cyclopropyl]pyrimidin-2-yl]phenyl]urea]: the IC50 stood at 12.7 nM.

Turning to `CCNC(=O)Nc1ccc(-c2nc(N3CCOC[C@@H]3C)cc(C3(S(=O)(=O)C4CCOC4)CC3)n2)cc1` (stereo partly drawn) [Example 94h, 1-ethyl-3-[4-[4-[(3S)-3-methylmorpholin-4-yl]-6-[1-(oxolan-3-ylsulfonyl)cyclopropyl]pyrimidin-2-yl]phenyl]urea], the IC50 was determined as 11.6 nM.

In the case of `C[C@H]1COCCN1c1cc(C2(S(=O)(=O)C3CCOC3)CC2)nc(-c2ccc(NC(=O)NC3CC3)cc2)n1` (stereo partly drawn) [Example 94i, 3-cyclopropyl-1-[4-[4-[(3S)-3-methylmorpholin-4-yl]-6-[1-(oxolan-3-ylsulfonyl)cyclopropyl]pyrimidin-2-yl]phenyl]urea], the IC50 was determined as 12.1 nM.

`C[C@H]1COCCN1c1cc(C2(S(=O)(=O)C3CCOC3)CC2)nc(-c2ccc(NC(=O)NCCO)cc2)n1` (stereo partly drawn) [Example 94j, 3-(2-hydroxyethyl)-1-[4-[4-[(3S)-3-methylmorpholin-4-yl]-6-[1-(oxolan-3-ylsulfonyl)cyclopropyl]pyrimidin-2-yl]phenyl]urea]: the IC50 was found to be 6.05 nM.

In the case of `C[C@H]1COCCN1c1cc(C2(S(=O)(=O)C3CCOC3)CC2)nc(-c2ccc(NC(=O)Nc3cnn(C)c3)cc2)n1` (stereo partly drawn) [Example 94k, 1-[4-[4-[(3S)-3-methylmorpholin-4-yl]-6-[1-(oxolan-3-ylsulfonyl)cyclopropyl]pyrimidin-2-yl]phenyl]-3-(1-methylpyrazol-4-yl)urea], the IC50 was 10.6 nM.

As to `CNC(=O)Nc1ccc(-c2nc(N3CCOC[C@@H]3C)cc(C3(S(=O)(=O)c4ccc(F)c(Cl)c4)CC3)n2)cc1` [Example 95a, 1-[4-[4-[1-(3-chloro-4-fluorophenyl)sulfonyl-cyclopropyl]-6-[(3S)-3-methylmorpholin-4-yl]pyrimidin-2-yl]phenyl]-3-methylurea], the IC50 is 13.9 nM.

With `C[C@H]1COCCN1c1cc(C2(S(=O)(=O)c3ccc(F)c(Cl)c3)CC2)nc(-c2ccc(NC(=O)NC3CC3)cc2)n1` [Example 95b, 1-[4-[4-[1-(3-chloro-4-fluorophenyl)sulfonyl-cyclopropyl]-6-[(3S)-3-methylmorpholin-4-yl]pyrimidin-2-yl]phenyl]-3-cyclopropylurea], the IC50 came to 19 nM.

As for `C[C@H]1COCCN1c1cc(C2(S(=O)(=O)c3ccc(F)c(Cl)c3)CC2)nc(-c2ccc(NC(=O)NCCO)cc2)n1` [Example 95c, 1-[4-[4-[1-(3-chloro-4-fluorophenyl)sulfonyl-cyclopropyl]-6-[(3S)-3-methylmorpholin-4-yl]pyrimidin-2-yl]phenyl]-3-(2-hydroxyethyl)urea], the half-maximal inhibitory concentration (IC50) is 7.06 nM.

`C[C@H]1COCCN1c1cc(C2(S(=O)(=O)c3ccc(F)c(Cl)c3)CC2)nc(-c2ccc(NC(=O)NCCF)cc2)n1` [Example 95d, 1-[4-[4-[1-(3-chloro-4-fluorophenyl)sulfonyl-cyclopropyl]-6-[(3S)-3-methylmorpholin-4-yl]pyrimidin-2-yl]phenyl]-3-(2-fluoroethyl)urea]: the IC50 was 12.6 nM.

As for `C[C@H]1COCCN1c1cc(C2(S(=O)(=O)c3ccc(F)c(Cl)c3)CC2)nc(-c2ccc(NC(=O)NCC(F)F)cc2)n1` [Example 95e, 1-[4-[4-[1-(3-chloro-4-fluorophenyl)sulfonyl-cyclopropyl]-6-[(3S)-3-methylmorpholin-4-yl]pyrimi-din-2-yl]phenyl]-3-(2,2-difluoroethyl)urea], the IC50 stood at 16 nM.

Consider `CCNC(=O)Nc1ccc(-c2nc(N3CCOC[C@@H]3C)cc(C3(S(=O)(=O)c4ccc(F)c(Cl)c4)CC3)n2)cc1` [Example 95f, 3-[4-[4-[1-(3-chloro-4-fluorophenyl)sulfonyl-cyclopropyl]-6-[(3S)-3-methylmorpholin-4-yl]pyrimidin-2-yl]phenyl]-1-ethylurea], for which the IC50 amounted to 10.9 nM.

As to `C[C@H]1COCCN1c1cc(C2(S(=O)(=O)c3ccc(F)c(Cl)c3)CC2)nc(-c2ccc(NC(=O)Nc3cnn(C)c3)cc2)n1` [Example 95g, 1-[4-[4-[1-(3-chloro-4-fluorophenyl)sulfonyl-cyclopropyl]-6-[(3S)-3-methylmorpholin-4-yl]pyrimidin-2-yl]phenyl]-3-(1-methylpyrazol-4-yl)urea], the IC50 was 16.4 nM.
